Values of other authors, collected in publication PMC3310340 (Bioconjugate Chemistry, 2012).

Tested on: rats
Settings: administered orally to rats; ref material safety data sheet for KHP

Compound: O=C(O)c1ccccc1C(=O)O [KHP, potassium biphthalate]
- LD50: > 3200 mg/kg
